Results from US7838674B2, “Tetracyclic lactame derivatives” (Novartis AG, priority 2007, dated 2010).
Where a name gives a salt, the structure may show the parent alone.

Target: T1, MAPKAPK2 enzyme (HIS-MK2, Invitrogen PV4019) (Homo sapiens, UniProt P49137)
T1 construct: His; purchased Invitrogen PV4019
Assay: Alternative MAPKAPK2 assay (Caliper microfluidic mobility shift, HSP27-peptide)
Assay type: biochemical
Conditions: HIS-MK2 0.013 nM, ATP 10 μM, 60 min at 30° C.

T1 sequence (P49137 whole entry): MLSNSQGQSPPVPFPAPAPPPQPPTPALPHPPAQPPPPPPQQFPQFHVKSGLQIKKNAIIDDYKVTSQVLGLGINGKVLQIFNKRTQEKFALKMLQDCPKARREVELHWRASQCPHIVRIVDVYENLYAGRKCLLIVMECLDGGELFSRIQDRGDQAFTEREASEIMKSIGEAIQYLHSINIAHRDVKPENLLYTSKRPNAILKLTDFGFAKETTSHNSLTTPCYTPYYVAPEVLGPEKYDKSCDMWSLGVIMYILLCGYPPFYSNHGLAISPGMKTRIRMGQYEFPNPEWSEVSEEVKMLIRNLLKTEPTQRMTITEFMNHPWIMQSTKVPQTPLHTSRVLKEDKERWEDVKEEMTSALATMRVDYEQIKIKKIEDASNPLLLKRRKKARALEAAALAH

SMILES	IC50 [nM]
CC(C)Oc1ccc(-c2cc3c(cn2)CCc2c-3[nH]c3c2C(=O)NC2(CC2)C32CC2)cn1 [Example 200, 2-(1′-Amino-bicyclopropyl-1-yl)-8-[6-isopropoxy-pyridin-3-yl]-4,5-dihydro-1H-pyrrolo[2,3-f]isoquinoline-3-carboxylic acid lactam]	37
COc1ccc(-c2ncc3c(n2)-c2[nH]c4c(c2CC3)C(=O)NCC42CNC2)cc1F [Example 268, 2-(3-Aminomethyl-azetidin-3-yl)-8-(3-fluoro-4-methoxy-phenyl)-4,5-dihydro-1H-1,7,9-triaza-cyclopenta[a]naphthalene-3-carboxylic acid lactan hydrochloride]	8
O=C1NCC2(CNC2)c2[nH]c3c(c21)CCc1cnc(-c2ccc(N4CCOCC4)nc2)nc1-3 [Example 329, 2-(3-Aminomethyl-azetidin-3-yl)-8-(6-morpholin-4-yl-pyridin-3-yl)-4,5-dihydro-1H-1,7,9-triaza-cyclopenta[a]naphthalene-3-carboxylic acid lactam]	6
O=C1NC2(CC2)C2(CNC2)c2[nH]c3c(c21)CCc1cnc(-c2cccc(F)c2)nc1-3 [Example 212, 2-[3-(1-Amino-cyclopropyl)-azetidin-3-yl]-8-(3-fluoro-phenyl)-4,5-dihydro-1H-1,7,9-triaza-cyclopenta[a]naphthalene-3-carboxylic acid lactam hydrochloride]	5
Cn1c2c(c3c1-c1cc(-c4cccc(F)c4)ncc1CC3)C(=O)NC1(CNC1)C2 [Example 133, 2-(3-Amino-azetidin-3-ylmethyl)-8-(3-fluoro-phenyl)-1-methyl-4,5-dihydro-1H-pyrrolo[2,3-f]isoquinoline-3-carboxylic acid lactam hydrochloride]	18
O=C1NC2CCC2c2[nH]c3c(c21)CCc1cnc(-c2cccc(F)c2)cc1-3 (single isomer, unassigned; (+)) [Example 51, (+)-2-(2-Amino-cyclobutyl)-8-(3-fluoro-phenyl)-4,5-dihydro-1H-pyrrolo[2,3-f]isoquinoline-3-carboxylic acid lactam]	28
COc1ccc(-c2ncc3c(n2)-c2[nH]c4c(c2CC3)C(=O)NCC42CNC2)cc1 [Example 206, 2-(3-Aminomethyl-azetidin-3-yl)-8-(4-methoxy-phenyl)-4,5-dihydro-1H-1,7,9-triaza-cyclopenta[a]naphthalene-3-carboxylic acid lactam hydrochloride]	< 3
O=C1NC2(CC2)Cc2[nH]c3c(c21)CCc1cnc(-c2ccc4c(c2)OCCO4)cc1-3 [Example 66, 2-(1-Amino-cyclopropylmethyl)-8-(2,3-dihydro-benzo[1,4]dioxin-6-yl)-4,5-dihydro-1H-pyrrolo[2,3-f]isoquinoline-3-carboxylic acid lactam]	60
COc1ccc(-c2cc3c(cn2)CCc2c-3[nH]c3c2C(=O)NC2(CC2)C32CC2)cn1 [Example 199, 2-(1′-Amino-bicyclopropyl-1-yl)-8-[6-methoxy-pyridin-3-yl]-4,5-dihydro-1H-pyrrolo[2,3-f]isoquinoline-3-carboxylic acid lactam]	23
CN1CC2(C1)c1[nH]c3c(c1C(=O)NC21CC1)CCc1cnc(-c2ccc(OCCN4CCOCC4)cc2)nc1-3 [Example 227, 2-[3-(1-Amino-cyclopropyl)-1-methyl-azetidin-3-yl]-8-[4-(2-morpholin-4-yl-ethoxy)-phenyl]-4,5-dihydro-1H-1,7,9-triaza-cyclopenta[a]naphthalene-3-carboxylic acid lactam]	7
COc1ccc(-c2cc3c(cn2)CCc2c-3[nH]c3c2C(=O)NCC32CC2)cn1 [Example 54, 2-(1-Aminomethyl-cyclopropyl)-8-(6-methoxy-pyridin-3-yl)-4,5-dihydro-1H-pyrrolo[2,3-f]isoquinoline-3-carboxylic acid lactam]	22
O=C1NC2(CC2)Cc2[nH]c3c(c21)CCc1cnc(-c2ccc(CCCN4CC(O)C4)cc2)cc1-3 [Example 248, 2-(1-Amino-cyclopropylmethyl)-8-{4-[3-(3-hydroxy-azetidin-1-yl)-propyl]-phenyl}-4,5-dihydro-1H-pyrrolo[2,3-f]isoquinoline-3-carboxylic acid lactam]	80
CCN1CC2(C1)c1[nH]c3c(c1C(=O)NC21CC1)CCc1cnc(-c2ccc(OC)nc2)cc1-3 [Example 251, 2-[3-(1-Amino-cyclopropyl)-1-ethyl-azetidin-3-yl]-8-(6-methoxy-pyridin-3-yl)-4,5-dihydro-1H-pyrrolo[2,3-f]isoquinoline-3-carboxylic acid lactam]	3
N#Cc1cc(-c2cc3c(cn2)CCc2c-3[nH]c3c2C(=O)NCC32CC2)ccc1CN1CCOCC1 [Example 319, 2-Morpholin-4-ylmethyl-10-spirocyclopropyl-5-(7-oxo-6,7,8,9,10,11-hexahydro-5H-3,8,11-triaza-benzo[a]fluoren-2-yl)-benzonitrile]	38
COc1ccc(-c2ncc3c(n2)-c2[nH]c4c(c2CC3)C(=O)NC2(CC2)C42CNC2)cc1 [Example 214, 2-[3-(1-Amino-cyclopropyl)-azetidin-3-yl]-8-(4-methoxy-phenyl)-4,5-dihydro-1H-1,7,9-triaza-cyclopenta[a]naphthalene-3-carboxylic acid lactam hydrochloride]	6
O=C1NCC2(CC2)c2[nH]c3c(c21)CCc1cnc(-c2cncnc2)cc1-3 [Example 123, 2-(1-Aminomethyl-cyclopropyl)-8-pyrimidin-5-yl-4,5-dihydro-1H-pyrrolo[2,3f]isoquinoline-3-carboxylic acid lactam]	30
Cn1c2c(c3c1-c1cc(-c4ccc5c(c4)OCCO5)ncc1CC3)C(=O)NC1(CNC1)C2 [Example 148, 2-(3-Amino-azetidin-3-ylmethyl)-8-(2,3-dihydro-benzo[1,4]dioxin-6-yl)-1-methyl-4,5-dihydro-1H-pyrrolo[2,3-f]isoquinoline-3-carboxylic acid lactam hydrochloride]	15
CN1CCOc2cc(-c3cc4c(cn3)CCc3c5c(n(C)c3-4)CC3(CNC3)NC5=O)ccc21 [Example 145, 2-(3-Amino-azetidin-3-ylmethyl)-1-methyl-8-(4-methyl-3,4-dihydro-2H-benzo[1,4]oxazin-7-yl)-4,5-dihydro-1H-pyrrolo[2,3-f]isoquinoline-3-carboxylic acid lactam hydrochloride]	29
CN(C)c1ccc(-c2cc3c(cn2)CCc2c-3[nH]c3c2C(=O)NCC32CC2)cn1 [Example 117]	19
CN1CC2(CNC(=O)c3c4c(n(C)c32)-c2nc(-c3cccc(F)c3)ncc2CC4)C1 [Example 204, 2-(3-Aminomethyl-1-methyl-azetidin-3-yl)-8-(3-fluoro-phenyl)-1-methyl-4,5-dihydro-1H-1,7,9-triaza-cyclopenta[a]naphthalene-3-carboxylic acid lactam]	22
CN1CCN(c2ccc(-c3cc4c(cn3)CCc3c-4[nH]c4c3C(=O)NC3(CC3)C4)cc2)CC1 [Example 217, 2-(1-Amino-cyclopropylmethyl)-8-(4-methyl-piperazin-1-yl-phenyl)-4,5-dihydro-1H-pyrrolo[2,3-f]isoquinoline-3-carboxylic acid lactam]	93
O=C1NC2(CC2)C2(CNC2)c2[nH]c3c(c21)CCc1cnc(-c2ccc(C(F)(F)F)nc2)cc1-3 [Example 211, 2-[3-(1-Amino-cyclopropyl)-azetidin-3-yl]-8-(6-trifluoromethyl-pyridin-3-yl)-4,5-dihydro-1H-pyrrolo[2,3-f]isoquinoline-3-carboxylic acid lactam hydrochloride]	< 3
COc1cccc(-c2ncc3c(n2)-c2c(c4c(n2C)CC2(CNC2)NC4=O)CC3)c1 [Example 137, 2-(3-Amino-azetidin-3-ylmethyl)-8-(3-methoxy-phenyl)-1-methyl-4,5-dihydro-1H-1,7,9-triaza-cyclopenta[a]naphthalene-3-carboxylic acid lactam hydrochloride]	49
O=C1NC2(CCC2)Cc2[nH]c3c(c21)CCc1cnc(-c2ccc(OCCN4CCOCC4)cc2)cc1-3 [Example 231, 2-(1-Amino-cyclobutylmethyl)-8-[4-(2-morpholin-4-yl-ethoxy)-phenyl]-4,5-dihydro-1H-pyrrolo[2,3-f]isoquinoline-3-carboxylic acid lactam]	72
COc1ccc(-c2cc3c(cn2)CCc2c4c(n(C)c2-3)CC2(CNC2)NC4=O)cn1 [Example 141, 2-(3-Amino-azetidin-3-ylmethyl)-8-(6-methoxy-pyridin-3-yl)-1-methyl-4,5-dihydro-1H-pyrrolo[2,3-f]isoquinoline-3-carboxylic acid lactam hydrochloride]	17
N#Cc1cc(-c2cc3c(cn2)CCc2c-3[nH]c3c2C(=O)NCC32CC2)ccc1N1CCN(CCO)CC1 [Example 315, 2-[4-(2-Hydroxy-ethyl)-piperazin-1-yl]-10-spirocyclopropyl-5-(7-oxo-6,7,8,9,10,11-hexahydro-5H-3,8,11-triaza-benzo[a]fluoren-2-yl)-benzonitrile]	9
COc1ccc(-c2cc3c(cn2)CCc2c4c(n(C)c2-3)CC2(CN(C)C2)NC4=O)cn1 [Example 142, 2-(3-Amino-1-methyl-azetidin-3-ylmethyl)-8-(6-methoxy-pyridin-3-yl)-1-methyl-4,5-dihydro-1H-pyrrolo[2,3-f]isoquinoline-3-carboxylic acid lactam]	34
O=C1NC2(CCC2)Cc2[nH]c3c(c21)CCc1cnc(-c2cccnc2)cc1-3 [Example 104, 2-(1-Amino-cyclobutylmethyl)-8-pyridin-3-yl-4,5-dihydro-1H-pyrrolo[2,3-f]isoquinoline-3-carboxylic acid lactam]	67
COc1ccc(-c2cc3c(cn2)CCc2c4c(n(C)c2-3)CC2(CNC2)NC4=O)cc1 [Example 38, 2-(3-Amino-azetidin-3-ylmethyl)-8-(4-methoxy-phenyl)-1-methyl-4,5-dihydro-1H-pyrrolo[2,3-f]isoquinoline-3-carboxylic acid lactam hydrochloride]	20
